# Results published in patent US20070094743A1, “ABCG1/ABCG4-related methods and compositions” (priority 2005, published 2007).
# Assays:
# [1] = system: ABCG4 mRNA; assay: ABCG4 mRNA levels normalized against β-actin mRNA, Taqman real-time RT-PCR, in mouse macrophages; format: cell-based; conditions: 2 μM, data not shown
# Method: (§1) Where indicated, RNA oligonucleotides targeting both sequences were mixed and used to down-regulate ABCG1 or ABCG4 gene expression. The scrambled control RNA oligonucleotides also were obtained from Dharmacon. An independent set of siRNA targeting ABCG1 (5′[…]3′) or ABCG4 (5′[…]3′) was obtained from Qiagen and used where indicated. For cholesterol efflux assays, mouse peritoneal macrophages were plated in 24- or 48-well plates and cultured in 10% fetal bovine serum and DMEM media at 37° C. for 24 hours. Cells were then transfected with siRNA and LipofectAMINE 2000 at the indicated concentration and labeled with isotopic cholesterol (2 μCi/ml [^3H]cholesterol in 1% fetal bovine serum) in the presence or absence of TO901317 (2 μM) for 48 hours. Cells were washed twice and equilibrated for 30 minutes for the third wash, and then HDL or other acceptors were added for the indicated period. Levels of ABCG1 and ABCG4 mRNAs normalized against β-actin mRNA were determined using Taqman real-time quantititative RT-PCR. The primers and probes were from Applied Biosystems.
# [2] = system: ABCG1 mRNA; assay: ABCG1 mRNA levels normalized against β-actin mRNA, Taqman real-time RT-PCR, in mouse macrophages; format: cell-based; conditions: 2 μM, data not shown
# Method: as §1
smiles,measurement,setting,value
O=S(=O)(c1ccccc1)N(CC(F)(F)F)c1ccc(C(O)(C(F)(F)F)C(F)(F)F)cc1 [T0901317],increase of mRNA levels of ABCG4,[1],2 fold
same,increase of mRNA levels of ABCG1,[2],3 fold
